Assay results as given in US8088822B2, “Use of fenretinide or bioactive derivatives thereof and pharmaceutical compositions comprising the same” (priority 2008, dated 2012).

Key:
HL60 cells = test: Mitochondrial transmembrane potential (MTP) assay, Rh123/PI, HL60 cells; assay type: cell-based; conditions: serum-deprived quiescent versus proliferating HL60 cells, fenretinide
Procedure: HL60 cells were cultured in RPMI 1640 supplemented (i) with or (ii) without 10% fetal bovine serum to obtain proliferating and quiescent leukemia cells respectively. Serum-deprived quiescent leukemic cells and proliferating leukemic cells were then cultured in media containing 0.5% FBS, and treated with 1 μM and 2.5 μM fenretinide, and also with chemotherapeutics as controls, 20 μM idarubicin (IDA) and 5 μM cytarabine (Ara-C).
To examine the effects of fenretinide on proliferating and quiescent leukemia cells, HL60 cells were chosen as serum deprived quiescent leukemic cell model obtained when incubated in RPMI 1640 without serum for 48 h, with G0/G1 phase cells (being in quiescent state) accounting up to 59.9%. Serum-deprived quiescent leukemic cells and proliferating leukemic cells were then cultured in media containing 0.5% FBS, and treated with 1 μM and 2.5 μM fenretinide, and also with chemotherapeutics as controls, 20 μM idarubicin (IDA) and 5 μM cytarabine (Ara-C). […] Fenretinide induces intracellular production of ROS, lowers mitochondrial transmembrane potential (MTP), and eventually leads to apoptosis in a variety of malignancies. We measured MTP induced by fenretinide in proliferating and quiescent HL60 cells, as examined through rhodamine 123 and propidium iodide staining and followed by flow cytometry analysis. […] We further measured intracellular ROS abundance induced by fenretinide. […] After incubation with 1 μM and 2.5 μM fenretinide for 3 h, the ROS level of proliferating cells increased by 1.77 and 2.6 fold, respectively.

U937 = test: Growth inhibition and combination index in AML cell line U937; assay type: cell-based; conditions: U937, single agent
Procedure: The combination Index (CI) was used to test the combination effect of fenretinide and Ara-C on growth inhibition in AML cell line U937. The CI was calculated according to the classic isobologram equation: CI=d1/D1+d2/D2. In this equation, D1 and D2 represent the doses of drug 1 and drug 2 alone, required to produce x % effect, and d1 and d2 are the doses of drugs 1 and 2 in combination required to produce the same effect. And CI<1, CI>1 and CI=1 represent the synergism, […], respectively.

CC1=C(/C=C/C(C)=C/C=C/C(C)=C/C(=O)Nc2ccc(O)cc2)C(C)(C)CCC1 [fenretinide, N-(4-hydroxyphenyl)retinamide]
mitochondrial transmembrane potential (MTP) (HL60 cells): more significant reduced MTP | dose alone required for growth inhibition rate of 65.47% (U937): 2.72 µM
